Consider 56 molecules from US9187424B1, “Aryl dihydropyridinones and piperidinone MGAT2 inhibitors” (Bristol-Myers Squibb Company, priority 2011, dated 2015).

The target in this experiment is Human MGAT-2 (Homo sapiens (Human), UniProt Q3SYC2). Kind of experiment: MGAT LCMS Assay (human MGAT-2).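 Note: diolein product quantified by LC/MS with positive APCI, expressed as peak area ratio versus an internal standard, and this ratio used to derive IC50.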 In kind it is biochemical. The conditions noted are these: human MGAT-2 membranes expressed in Sf9 cells; 2-oleoylglycerol and oleoyl-Coenzyme A; read-out: h-MGAT2 IC50 (nM) LCMS Assay.
Chain of Human MGAT-2 (Q3SYC2 whole entry): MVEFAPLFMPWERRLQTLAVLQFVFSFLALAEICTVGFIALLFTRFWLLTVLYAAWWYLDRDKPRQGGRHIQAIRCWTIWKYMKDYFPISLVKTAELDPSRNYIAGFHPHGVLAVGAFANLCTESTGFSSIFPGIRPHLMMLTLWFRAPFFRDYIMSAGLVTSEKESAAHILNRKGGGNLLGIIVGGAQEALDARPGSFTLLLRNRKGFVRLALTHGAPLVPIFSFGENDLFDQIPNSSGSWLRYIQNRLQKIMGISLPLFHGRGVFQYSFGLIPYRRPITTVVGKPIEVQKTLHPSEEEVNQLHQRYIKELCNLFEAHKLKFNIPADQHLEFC
For `Cc1ccc(C2=C(NC(=O)CS(C)(=O)=O)C(=O)NC(c3ccc(OCc4ccccc4)cc3)(C(F)(F)F)C2)cc1` (centres unmarked) [Example 279], the IC50 is 2 nM.

With `COc1ccc(C2=C[C@](c3ccc(OCCCC(F)(F)F)cc3)(C(F)(F)F)NC(=O)C2(F)C#N)cc1` (single isomer, unassigned) [Example 15-2, 3-Fluoro-4-(4-methoxyphenyl)-2-oxo-6-(4-(4,4,4-trifluorobutoxyl)phenyl)-6-(trifluoromethyl)-1,2,3,6-tetrahydropyridine-3-carbonitrile], the IC50 is 431 nM.

Regarding `CCCCCCNC(=O)c1ccc(C2(C(F)(F)F)CC(c3ccc(C)cc3)=C(C(=O)Nc3ccc(OC)cc3)C(=O)N2)cc1` (centres unmarked) [Example 155], the IC50 came out at 484 nM.

`CCOc1ccc(C2=C(c3nn[nH]n3)C(=O)NC(c3ccc(OCCCC(F)(F)F)cc3)(C(F)(F)F)C2)cc1` (centres unmarked) [Example 208]: the IC50 was 30 nM.

`CCCCCCc1cnc(C2(C)CC(c3ccc(C)cc3)=C(C#N)C(=O)N2)o1` (centres unmarked) [Example 108, 6-(5-Hexyloxazol-2-yl)-6-methyl-2-oxo-4-p-tolyl-1,2,5,6-tetrahydropyridine-3-carbonitrile]: the IC50 came out at 189 nM.

For the molecule `COc1ccc(C2=C(C#N)C(=O)NC(c3ccc(OCCCC(F)(F)F)cc3)(C(F)(F)F)C2)cc1OC` (centres unmarked) [Example 216], the IC50 is 440 nM.

In the case of `COc1ccc(C2=C(c3nn[nH]n3)C(=O)NC(c3ccc(OCCCC(F)(F)F)cc3)(C(F)(F)F)C2)c2c1CCC2` (centres unmarked) [Example 212], the IC50 worked out at 416 nM.

As to `Cc1ccc(C2=C(C#N)C(=O)NC(c3ccc(OCCCCCC(F)(F)F)cc3)(C(F)(F)F)C2)cc1` (centres unmarked) [Example 184], the IC50 is 76 nM.

Consider `Cc1ccc(C2=C(c3nn[nH]n3)C(=O)NC(c3ccc(OCCCC(F)(F)F)cc3)(C(F)F)C2)cc1` (centres unmarked) [Example 213], for which the IC50 stood at 1100 nM.

For the molecule `CCOc1ccc(C2=C(c3nn[nH]n3)C(=O)NC(c3ccc(OCCCCCC(F)(F)F)cc3F)(C(F)(F)F)C2)cc1` (centres unmarked) [Example 283], the IC50 was determined as 3 nM.

As for `Cc1ccc(C2=C(C(=O)Nc3cn(C)cn3)C(=O)NC(c3ccc(OCCCC(F)(F)F)cc3)(C(F)(F)F)C2)cc1` (centres unmarked) [Example 87], the IC50 came out at 1220 nM.

Turning to `O=C1NC(c2ccc(OCCCC(F)(F)F)cc2)(C(F)(F)F)CC(c2ccc(OC(F)F)cc2)=C1NC(=O)c1ccncc1` (centres unmarked) [Example 275], the concentration for half-maximal inhibition (IC50) was found to be 2 nM.

As for `COc1ccc(C2=C(c3nn[nH]n3)C(=O)NC(c3ccc(OCC(F)(F)F)cc3)(C(F)(F)F)C2)cc1` (centres unmarked) [Example 240], the IC50 came out at 7 nM.

In the case of `CCCCCCC#Cc1ccc(C2(C(F)(F)F)CC(c3ccc(OC(F)F)cc3)=C(c3nn[nH]n3)C(=O)N2)cc1F` (centres unmarked) [Example 307], the IC50 stood at 3 nM.

On to `O=C1NC(c2ccc(OCCCC(F)(F)F)cc2)(C(F)(F)F)CC(c2ccc(OC(F)F)cc2)=C1c1nn[nH]n1` (centres unmarked) [Example 205], for which the IC50 was determined as 13 nM.

Take `O=C1NC(c2ccc(OCCCCCC(F)(F)F)cc2F)(C(F)(F)F)CC(c2ccc(CC(F)(F)F)cc2)=C1c1nn[nH]n1` (centres unmarked) [Example 284]: the IC50 was 4 nM.

`Cc1ccc(C2=C(C#N)C(=O)NC(c3ccc(OCCCC(F)(F)F)cc3)(C(F)(F)F)C2)cc1F` (centres unmarked) [Example 219]: the IC50 was determined as 172 nM.

With `O=C1NC(c2ccc(OCCCCCC(F)(F)F)c(F)c2)(C(F)(F)F)CC(c2ccc(OC(F)F)cc2)=C1c1nn[nH]n1` (centres unmarked) [Example 301], the IC50 is 19 nM.

Turning to `Cc1ccc(C2=C(C(=O)Nc3nnc(C(F)(F)F)o3)C(=O)NC(c3ccc(OCCC(F)(F)F)cc3)(C(F)(F)F)C2)cc1` (centres unmarked) [Example 136], the IC50 was 328 nM.

For `COOSNc1ccc(C2=C(C#N)C(=O)NC(c3ccc(OCCCC(F)(F)F)cc3)(C(F)(F)F)C2)cc1` (centres unmarked) [Example 225], the IC50 turned out to be 889 nM.

As to `CCCCCC#CC1(C(F)(F)F)CC(c2ccc(C)cc2)=C(c2cn[nH]n2)C(=O)N1` (centres unmarked) [Example 194], the IC50 amounted to 6 nM.

As to `CCCOc1ccc(C2(C(F)(F)F)CC(c3ccc(C)cc3)=C(NC(=O)CS(C)(=O)=O)C(=O)N2)cc1` (centres unmarked) [Example 302], the concentration for half-maximal inhibition (IC50) is 105 nM.

Take `CC(=O)C(=O)NC1=C(c2ccc(C)cc2)CC(c2ccc(OCCCC(F)(F)F)cc2)(C(F)(F)F)NC1=O` (centres unmarked) [Example 250]: the IC50 worked out at 243 nM.

Turning to `COc1ccc(C2=C[C@@](c3ccc(OCCCC(F)(F)F)cc3)(C(F)(F)F)NC(=O)C2(F)C#N)cc1` (stereo in doubt) [Example 15-3, 3-Fluoro-4-(4-methoxyphenyl)-2-oxo-6-(4-(4,4,4-trifluorobutoxyl)phenyl)-6-(trifluoromethyl)-1,2,3,6-tetrahydropyridine-3-carbonitrile], the IC50 amounted to 756 nM.

For `O=C1NC(c2ccc(OCCCC(F)(F)F)cc2)(C(F)(F)F)CC(c2ccc3c(c2)CCCC3)=C1c1nn[nH]n1` (centres unmarked) [Example 210], the IC50 is 2 nM.

For the molecule `COc1ccc(C2=C(C#N)C(=O)NC(c3ccc(OCCCC(F)(F)F)cc3)(C(F)(F)F)C2)cc1Cl` (centres unmarked) [Example 258], the IC50 was 1150 nM.

On to `Cc1ccc(C2=C(NC(=O)c3cc(-c4cccc(F)c4)no3)C(=O)NC(c3ccc(OCCCC(F)(F)F)cc3)(C(F)(F)F)C2)cc1` (centres unmarked) [Example 190], for which the IC50 was found to be 155 nM.

With `N#CC1=C(c2ccc(Cl)c(Cl)c2)CC(c2ccc(OCCCC(F)(F)F)cc2)(C(F)(F)F)NC1=O` (centres unmarked) [Example 222], the IC50 was 733 nM.

For `CCCCCCCC#CC1(C(F)(F)F)CC(c2ccc(OC(F)F)cc2)=C(NC(=O)CS(C)(=O)=O)C(=O)N1` (centres unmarked) [Example 313], the IC50 is 4 nM.

As to `Cc1ccc(C2=C(C#N)C(=O)NC(c3ccc(OCCCC(F)(F)F)cc3)(C(F)(F)F)C2)cc1Cl` (centres unmarked) [Example 259], the IC50 is 15 nM.

For the molecule `Cc1ccc(C2=C(C(=O)Nc3cccc(C)c3)C(=O)NC(c3ccc(OCCC(F)(F)F)cc3)(C(F)(F)F)C2)cc1` (centres unmarked) [Example 128], the IC50 is 328 nM.

Take `Cc1ccc(C2=C(NC(=O)c3cccnc3)C(=O)NC(c3ccc(OCCCC(F)(F)F)cc3)(C(F)(F)F)C2)cc1` (centres unmarked) [Example 299]: the IC50 amounted to 11 nM.

`Cc1ccc(C2=C(NC(=O)c3cocn3)C(=O)NC(c3ccc(OCCCC(F)(F)F)cc3)(C(F)(F)F)C2)cc1` (centres unmarked) [Example 151]: the IC50 was 5120 nM.

Regarding `COc1ccc(C(=O)NC2=C(c3ccc(C)cc3)CC(c3ccc(OCCCC(F)(F)F)cc3)(C(F)(F)F)NC2=O)nn1` (centres unmarked) [Example 232], the 50% inhibitory concentration (IC50) turned out to be 6 nM.

In the case of `O=C1NC(c2ccc(OCCCC(F)(F)F)cc2F)(C(F)(F)F)CC(c2ccc(CC3CC3)cc2)=C1c1nn[nH]n1` (centres unmarked) [Example 277], the IC50 stood at 2 nM.

On to `Cc1ccc(C2=C(c3nnn[nH]3)C(=O)NC(c3ccc(OCCCC(F)(F)F)cc3)(C(F)(F)F)C2)c(C)c1` (centres unmarked) [Example 156], for which the IC50 came to 254 nM.

Take `Cc1ccc(C2=C(NC(=O)CS(C)(=O)=O)C(=O)NC(c3ccc(OCCCC(F)(F)F)cc3)(C(F)(F)F)C2)cc1` (centres unmarked) [Example 239]: the IC50 was 15 nM.

As for `Cc1ccc(NC(=O)C2=C(c3ccc(C)cc3)CC(c3ccc(OCCC(F)(F)F)cc3)(C(F)(F)F)NC2=O)cc1` (centres unmarked) [Example 129], the IC50 worked out at 222 nM.

With `COc1ccc(NC(=O)C2=C(c3ccc(C)cc3)CC(C)(C(=O)NCc3ccccc3)NC2=O)cc1` (centres unmarked) [Example 189], the IC50 amounted to 1160 nM.

With `Cc1ccc(C2=C(n3cnnc3C)C(=O)NC(c3ccc(OCCCC(F)(F)F)cc3)(C(F)(F)F)C2)cc1` (centres unmarked) [Example 186], the IC50 stood at 229 nM.

Regarding `CCCCCCC#Cc1ccc(C2(C(F)(F)F)CC(c3ccc(OCC)cc3)=C(c3nn[nH]n3)C(=O)N2)cc1F` (centres unmarked) [Example 308], the IC50 turned out to be 61 nM.

On to `COc1cc(C(=O)NC2=C(c3ccc(C)cc3)CC(c3ccc(OCCCC(F)(F)F)cc3)(C(F)(F)F)NC2=O)on1` (centres unmarked) [Example 187], for which the IC50 turned out to be 4 nM.

Turning to `COc1ccc(C2=C(C#N)C(=O)NC(c3ccc(OCCCC(F)(F)F)cc3)(C(F)(F)F)C2)cc1F` (centres unmarked) [Example 218], the IC50 is 166 nM.

For the molecule `COc1ccc(C2(C(F)(F)F)NC(=O)C(C#N)=C(c3ccc(C)cc3)C2(F)F)cc1` (centres unmarked) [Example 138], the IC50 came out at 5800 nM.

For the molecule `CCCCCn1cc(C2(C(F)(F)F)CC(c3ccc(C)cc3)=C(C#N)C(=O)N2)cn1` (centres unmarked) [Example 230], the IC50 is 1530 nM.

With `COc1ccc(NC(=O)C2=C(c3ccc(C)cc3)C(F)(F)C(c3ccc(OC)cc3)(C(F)(F)F)NC2=O)cc1` (centres unmarked) [Example 181], the IC50 worked out at 2050 nM.

As for `O=C1NC(c2ccc(OCCCC(F)(F)F)cc2)(C(F)(F)F)CC(c2ccc3ccccc3c2)=C1c1nn[nH]n1` (centres unmarked) [Example 207], the IC50 was found to be 11 nM.

Regarding `O=C(Nc1cccnc1)C1=C(c2ccc(OC(F)F)cc2)CC(c2ccc(OCCCC(F)(F)F)cc2)(C(F)(F)F)NC1=O` (centres unmarked) [Example 280], the IC50 amounted to 2 nM.

With `Cc1ccc(C2=C(NC(=O)c3ccccc3F)C(=O)NC(c3ccc(OCCCC(F)(F)F)cc3)(C(F)(F)F)C2)cc1` (centres unmarked) [Example 249], the IC50 came out at 185 nM.

For `Cc1ccc(C2=C(NC(=O)c3ccn(C)n3)C(=O)NC(c3ccc(OCCCC(F)(F)F)cc3)(C(F)(F)F)C2)cc1` (centres unmarked) [Example 231], the IC50 was 34 nM.

Take `Cc1ccc(C2=C(NC(=O)n3ncnn3)C(=O)NC(c3ccc(OCCCC(F)(F)F)cc3)(C(F)(F)F)C2)cc1` (centres unmarked) [Example 192]: the IC50 was determined as 433 nM.

Turning to `COOCNc1ccc(C2=C(C#N)C(=O)NC(c3ccc(OCCCC(F)(F)F)cc3)(C(F)(F)F)C2)cc1` (centres unmarked) [Example 257], the IC50 was 421 nM.

Take `Cc1ccc(C2=C(c3cn[nH]n3)C(=O)NC(C#CC3CC3)(C(F)(F)F)C2)cc1` (centres unmarked) [Example 197]: the IC50 worked out at 178 nM.

For `COc1ccc(C2=C(c3ccc(C)cc3)C(F)(F)C(c3ccc(OCCCC(F)(F)F)cc3)(C(F)(F)F)NC2=O)cn1` (centres unmarked) [Example 140], the IC50 was 356 nM.

As for `COc1ccc(C2=C[C@@](c3ccc(OCCCC(F)(F)F)cc3)(C(F)(F)F)NC(=O)C2(F)C#N)cc1` (stereo in doubt) [Example 15-4, 3-Fluoro-4-(4-methoxyphenyl)-2-oxo-6-(4-(4,4,4-trifluorobutoxyl)phenyl)-6-(trifluoromethyl)-1,2,3,6-tetrahydropyridine-3-carbonitrile], the IC50 turned out to be 2050 nM.

`COCc1ccc(C2=C(C#N)C(=O)NC(c3ccc(OCCCC(F)(F)F)cc3)(C(F)(F)F)C2)cc1` (centres unmarked) [Example 260]: the IC50 amounted to 56 nM.
